Molecular target: T1, pyruvate kinase (PK-1 from rabbit muscle) (Oryctolagus cuniculus, UniProt P11974)
T1 construct: gene PKM; purified PK-1 from rabbit muscle
Assay: enzyme kinetics, ATP production by luminescence (CellTiter-Glo), competitive model fit
Format: biochemical

T1 sequence (P11974 2-531): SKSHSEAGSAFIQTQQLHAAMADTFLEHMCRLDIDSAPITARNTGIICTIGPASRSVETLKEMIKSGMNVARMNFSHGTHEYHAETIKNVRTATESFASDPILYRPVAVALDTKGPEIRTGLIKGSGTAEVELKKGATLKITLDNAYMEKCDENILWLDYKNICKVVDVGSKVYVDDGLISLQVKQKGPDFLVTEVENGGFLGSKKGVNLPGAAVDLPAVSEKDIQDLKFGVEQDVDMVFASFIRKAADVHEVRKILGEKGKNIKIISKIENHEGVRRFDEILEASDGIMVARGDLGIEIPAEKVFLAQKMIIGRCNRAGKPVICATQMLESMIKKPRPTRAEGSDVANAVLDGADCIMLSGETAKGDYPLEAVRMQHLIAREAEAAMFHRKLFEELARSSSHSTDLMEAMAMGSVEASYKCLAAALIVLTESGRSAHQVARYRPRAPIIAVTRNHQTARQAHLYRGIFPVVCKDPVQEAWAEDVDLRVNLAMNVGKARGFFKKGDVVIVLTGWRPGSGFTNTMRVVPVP

## CCOC(=O)C(C)=O [ethyl pyruvate]
  Ki: 3 ± 0.29 mM

From PMC4560413, “Ethyl Pyruvate Emerges as a Safe and Fast Acting Agent against Trypanosoma brucei by Targeting Pyruvate Kinase Activity” (PLoS ONE, 2015)
